Test results reported in patent publication US10377753B2, “Substituted 4-azaindoles and their use as GluN2B receptor modulators” (Janssen Pharmaceutica NV, priority 2015, dated 2019).
Where a name gives a salt, the structure may show the parent alone.

What follows are compounds tested against cloned human NR1/NR2B ion channels (Homo sapiens (Human), UniProt Q05586+Q13224) (assay: HNR2BC: effects of test articles on cloned human NR1/NR2B ion channels expressed in mammalian cells (FLIPR calcium flux)). Settings: cloned human NR1/NR2B, Table 5.
Sequence of cloned human NR1/NR2B ion channels (Q13224 27-1484, other chains not shown): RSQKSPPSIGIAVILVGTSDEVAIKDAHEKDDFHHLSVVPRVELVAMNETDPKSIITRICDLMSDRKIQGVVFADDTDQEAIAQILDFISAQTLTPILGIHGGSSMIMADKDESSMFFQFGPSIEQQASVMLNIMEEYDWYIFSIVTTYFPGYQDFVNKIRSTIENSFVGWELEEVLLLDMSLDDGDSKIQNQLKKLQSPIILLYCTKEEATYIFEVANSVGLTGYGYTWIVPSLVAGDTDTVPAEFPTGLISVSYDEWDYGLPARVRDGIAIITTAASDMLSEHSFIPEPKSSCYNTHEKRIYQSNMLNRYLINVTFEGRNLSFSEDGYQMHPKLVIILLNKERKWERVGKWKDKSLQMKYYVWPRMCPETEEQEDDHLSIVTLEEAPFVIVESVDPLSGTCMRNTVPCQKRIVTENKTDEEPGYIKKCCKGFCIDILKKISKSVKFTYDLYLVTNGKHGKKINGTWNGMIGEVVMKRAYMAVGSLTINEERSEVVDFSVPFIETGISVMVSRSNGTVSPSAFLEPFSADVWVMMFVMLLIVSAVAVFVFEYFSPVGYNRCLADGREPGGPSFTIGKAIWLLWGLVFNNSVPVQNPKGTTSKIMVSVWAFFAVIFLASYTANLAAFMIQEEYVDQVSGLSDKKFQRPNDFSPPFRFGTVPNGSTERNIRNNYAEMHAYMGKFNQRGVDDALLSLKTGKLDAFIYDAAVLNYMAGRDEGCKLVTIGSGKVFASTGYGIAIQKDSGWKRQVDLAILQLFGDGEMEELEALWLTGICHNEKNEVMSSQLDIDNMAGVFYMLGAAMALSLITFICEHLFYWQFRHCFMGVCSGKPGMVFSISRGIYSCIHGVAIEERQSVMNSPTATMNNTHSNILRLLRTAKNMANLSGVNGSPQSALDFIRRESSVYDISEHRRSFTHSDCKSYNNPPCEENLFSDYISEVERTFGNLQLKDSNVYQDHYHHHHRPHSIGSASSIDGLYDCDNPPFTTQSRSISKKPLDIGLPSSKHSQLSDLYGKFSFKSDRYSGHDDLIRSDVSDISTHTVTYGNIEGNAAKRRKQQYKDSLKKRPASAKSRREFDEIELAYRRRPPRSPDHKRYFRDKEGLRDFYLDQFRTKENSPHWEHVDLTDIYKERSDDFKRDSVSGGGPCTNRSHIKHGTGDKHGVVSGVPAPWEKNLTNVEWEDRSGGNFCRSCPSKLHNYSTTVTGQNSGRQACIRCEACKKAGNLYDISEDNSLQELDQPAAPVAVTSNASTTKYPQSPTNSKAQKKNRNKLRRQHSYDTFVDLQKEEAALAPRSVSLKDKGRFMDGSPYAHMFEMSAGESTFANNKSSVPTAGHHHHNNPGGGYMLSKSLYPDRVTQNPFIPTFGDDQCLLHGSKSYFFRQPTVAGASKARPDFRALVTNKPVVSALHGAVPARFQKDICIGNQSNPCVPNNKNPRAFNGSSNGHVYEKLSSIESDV
Type: cell-based
Description: HNR2BC: Effects of Test Articles on Cloned Human NR1/NR2B Ion Channels Expressed in Mammalian Cells
NMDA receptors are ion channels that are highly permeable to Ca^2+ ions, rendering it possible to monitor NMDA receptor function using cell-based calcium flux assay. In this assay, co-agonists glutamate and glycine are added to cells heterologously expressing human GluN1/GluN2B NMDA receptors to initiate cellular Ca^2+ influx. The time course of the changes in intracellular calcium is measured using a fluorescent dye and a FLIPR (Fluorometric Imaging Plate Reader) device.
Twenty four hours before measurements, the expression of the NMDA receptors in the stable cell line is induced with Tet-On inducible system in the presence of a non-selective NMDA receptor blocker. On the day of the experiment, cell culture media is carefully washed and the cells are loaded with Calcium 5 Dye Kit (Molecular Devices) in dye loading buffer containing 137 mM NaCl, 4 mM KCl, 2 mM CaCl2, 0.5 mM MgCl2, 10 mM HEPES and 5 mM D-glucose; pH 7.4. After 1 h incubation at the room temperature, the dye is washed away with the assay buffer (137 mM NaCl, 4 mM KCl, 2 mM CaCl2, 0.01 mM EDTA, 10 mM HEPES and 5 mM D-glucose; pH 7.4) In the FLIPR TETRA reader, various concentrations of the test compounds are added to the cells for 5 min while fluorescence is monitored to detect potential agonist activity. Next, co-agonists, glutamate and glycine are added for another 5 minutes. The concentration of glutamate corresponding to ˜EC80 is used to maximize the assay's signal window and ability to detect NMDA receptor antagonists and negative allosteric modulators. A saturating concentration (10 μM) of glycine is also present in the assay. […] The fluorescent signal in the presence of test compounds is quantified and normalized to the signal defined by the appropriate control wells.

In order of falling IC50:
1. Cc1cc(-c2cnc3ccn(C[S+](C)[O-])c3c2)ccc1F (racemic) [Example 331, (R/S)-6-(4-Fluoro-3-methyl-phenyl)-1-(methylsulfinylmethyl)pyrrolo[3,2-b]pyridine]  3980 nM
2. CC(NC(=O)Cn1ccc2ncc(-c3ccc(F)cc3)cc21)C(F)(F)F (racemic) [Example 231, (R/S)-2-[6-(4-Fluorophenyl)pyrrolo[3,2-b]pyridin-1-yl]-N-(2,2,2-trifluoro-1-methyl-ethyl)acetamide]  2000 nM
3. CCC1CCCN1C(=O)Cn1ccc2ncc(-c3ccc(F)c(C)c3)cc21 (racemic) [Example 196, (R/S)-1-(2-Ethylpyrrolidin-1-yl)-2-[6-(4-fluoro-3-methyl-phenyl)pyrrolo[3,2-b]pyridin-1-yl]ethanone trifluoroacetate salt]  1260 nM
4. COC1CCN(C(=O)Cn2ccc3ncc(-c4ccc(F)c(C)c4)cc32)C1 (racemic) [Example 198, (R/S)-2-[6-(4-Fluoro-3-methyl-phenyl)pyrrolo[3,2-b]pyridin-1-yl]-1-(3-methoxypyrrolidin-1-yl)ethanone trifluoroacetate salt]  1000 nM
5. Cc1cc(-c2cnc3ccn(CC4CO4)c3c2)ccc1F (racemic) [Example 180, (R/S)-6-(4-Fluoro-3-methyl-phenyl)-1-(oxiran-2-ylmethyl)pyrrolo[3,2-b]pyridine trifluoroacetate salt]  794 nM
6. Fc1ccc(-c2cnc3ccn(CC4CCCCO4)c3c2)cc1 (racemic) [Example 228, (R/S)-6-(4-Fluorophenyl)-1-(tetrahydropyran-2-ylmethyl)pyrrolo[3,2-b]pyridine trifluoroacetate salt]  631 nM
7. Cc1cc(-c2cnc3ccn(CC4CCO4)c3c2)ccc1F (racemic) [Example 184, (R/S)-6-(4-Fluoro-3-methyl-phenyl)-1-(oxetan-2-ylmethyl)pyrrolo[3,2-b]pyridine trifluoroacetate salt]  501 nM
8. Cc1cc(-c2cnc3ccn(CC(=O)N4CCCC(C(F)(F)F)C4)c3c2)ccc1F (racemic) [Example 195, (R/S)-2-[6-(4-Fluoro-3-methyl-phenyl)pyrrolo[3,2-b]pyridin-1-yl]-1-[3-(trifluoromethyl)-1-piperidyl]ethanone trifluoroacetate salt]  398 nM
9. Cc1cc(-c2cnc3ccn(CC(=O)N4CCOCC4C)c3c2)ccc1F (racemic) [Example 210, (R/S)-2-[6-(4-Fluoro-3-methyl-phenyl)pyrrolo[3,2-b]pyridin-1-yl]-1-(3-methylmorpholin-4-yl)ethanone trifluoroacetate salt]  398 nM
10. O=C(Cn1ccc2ncc(-c3ccc(F)cc3)cc21)N1CCC(O)C1 (racemic) [Example 218, (R/S)-2-[6-(4-Fluorophenyl)pyrrolo[3,2-b]pyridin-1-yl]-1-(3-hydroxypyrrolidin-1-yl)ethanone]  398 nM
11. O=C(Cn1cc(Cl)c2ncc(-c3ccccc3)cc21)NC1CC1 [Example 1, 2-(3-Chloro-6-phenyl-pyrrolo[3,2-b]pyridin-1-yl)-N-cyclopropyl-acetamide]  316 nM
12. Cc1cc(-c2cnc3ccn(CC(=O)N4CCCC(F)C4)c3c2)ccc1F (racemic) [Example 199, (R/S)-2-[6-(4-Fluoro-3-methyl-phenyl)pyrrolo[3,2-b]pyridin-1-yl]-1-(3-fluoro-1-piperidyl)ethanone trifluoroacetate salt]  200 nM
13. O=C(Cn1cc(Cl)c2ncc(-c3ccccc3)cc21)N1CCOCC1 [Example 5, 2-(3-Chloro-6-phenyl-pyrrolo[3,2-b]pyridin-1-yl)-1-morpholino-ethanone]  200 nM
14. Cc1cc(-c2cnc3ccn(CC(=O)N4CCOC(C)C4)c3c2)ccc1F (racemic) [Example 194, (R/S)-2-[6-(4-Fluoro-3-methyl-phenyl)pyrrolo[3,2-b]pyridin-1-yl]-1-(2-methylmorpholin-4-yl)ethanone trifluoroacetate salt]  158 nM
15. Cc1cc(-c2cnc3ccn(CC(C)(O)C4CC4)c3c2)ccc1F (racemic) [Example 275, (R/S)-2-Cyclopropyl-1-[6-(4-fluoro-3-methyl-phenyl)pyrrolo[3,2-b]pyridin-1-yl]propan-2-ol trifluoroacetate salt]  158 nM
16. O=C(Cn1cc(Cl)c2ncc(-c3ccc(F)cc3)cc21)N1CCOCC1 [Example 7, 2-[3-Chloro-6-(4-fluorophenyl)pyrrolo[3,2-b]pyridin-1-yl]-1-morpholino-ethanone]  158 nM
17. Cc1cc(-c2cnc3ccn(CC(=O)N4CC5CC5C4)c3c2)ccc1F (racemic) [Example 189, (R/S)-1-(3-Azabicyclo[3.1.0]hexan-3-yl)-2-[6-(4-fluoro-3-methyl-phenyl)pyrrolo[3,2-b]pyridin-1-yl]ethanone trifluoroacetate salt]  126 nM
18. O=C(Cn1cc(Cl)c2ncc(-c3ccc(F)cc3)cc21)NC1CC1 [Example 2, 2-[3-Chloro-6-(4-fluorophenyl)pyrrolo[3,2-b]pyridin-1-yl]-N-cyclopropyl-acetamide]  126 nM
19. O=C(Cn1cc(Br)c2ncc(-c3ccccc3)cc21)NC1CC1 [Example 14, 2-(3-Bromo-6-phenyl-pyrrolo[3,2-b]pyridin-1-yl)-N-cyclopropyl-acetamide]  126 nM
20. Cc1cc(-c2cnc3ccn(CC(F)C4CC4)c3c2)ccc1F (racemic) [Example 289, (R/S)-1-(2-Cyclopropyl-2-fluoro-ethyl)-6-(4-fluoro-3-methyl-phenyl)pyrrolo[3,2-b]pyridine]  79.4 nM
21. O=C(Cn1cc(Br)c2ncc(-c3ccccc3)cc21)N1CCOCC1 [Example 16, 2-(3-Bromo-6-phenyl-pyrrolo[3,2-b]pyridin-1-yl)-1-morpholino-ethanone]  79.4 nM
22. O=C(Cn1cc(Cl)c2ncc(-c3ccc(F)cc3)cc21)N1CCCC1 [Example 9, 2-[3-Chloro-6-(4-fluorophenyl)pyrrolo[3,2-b]pyridin-1-yl]-1-pyrrolidin-1-yl-ethanone]  63.1 nM
23. O=C(Cn1cc(Cl)c2ncc(-c3ccccc3)cc21)N1CCCC1 [Example 4, 2-(3-Chloro-6-phenyl-pyrrolo[3,2-b]pyridin-1-yl)-1-pyrrolidin-1-yl-ethanone]  50.1 nM
24. O=C(Cn1cc(Cl)c2ncc(-c3ccccc3)cc21)N1CCC1 [Example 6, 1-(Azetidin-1-yl)-2-(3-chloro-6-phenyl-pyrrolo[3,2-b]pyridin-1-yl)ethanone]  50.1 nM
25. Cc1cccc(-c2cnc3c(Cl)cn(CC(=O)NC4CC4)c3c2)c1 [Example 10, 2-[3-Chloro-6-(m-tolyl)pyrrolo[3,2-b]pyridin-1-yl]-N-cyclopropyl-acetamide]  50.1 nM
26. Cc1cccc(-c2cnc3c(Cl)cn(CC(=O)N4CCOCC4)c3c2)c1 [Example 13, 2-[3-Chloro-6-(m-tolyl)pyrrolo[3,2-b]pyridin-1-yl]-1-morpholino-ethanone]  50.1 nM
27. O=C(Cn1cc(Br)c2ncc(-c3ccc(F)cc3)cc21)NC1CC1 [Example 17, 2-[3-Bromo-6-(4-fluorophenyl)pyrrolo[3,2-b]pyridin-1-yl]-N-cyclopropyl-acetamide]  50.1 nM
28. Cc1cccc(-c2cnc3c(Cl)cn(CC(=O)N4CCCC4)c3c2)c1 [Example 12, 2-[3-Chloro-6-(m-tolyl)pyrrolo[3,2-b]pyridin-1-yl]-1-pyrrolidin-1-yl-ethanone]  39.8 nM
29. O=C(Cn1cc(Br)c2ncc(-c3ccccc3)cc21)N1CCCC1 [Example 15, 2-(3-Bromo-6-phenyl-pyrrolo[3,2-b]pyridin-1-yl)-1-pyrrolidin-1-yl-ethanone]  39.8 nM
30. O=C(Cn1ccc2ncc(-c3ccc(F)cc3)cc21)N1CC[C@H](F)C1 (single isomer, unassigned) [Example 293, trifluoroacetate salt]  31.6 nM
31. Cc1cccc(-c2cnc3c(Cl)cn(CC(=O)N4CCC4)c3c2)c1 [Example 8, 1-(Azetidin-1-yl)-2-[3-chloro-6-(m-tolyl)pyrrolo[3,2-b]pyridin-1-yl]ethanone]  31.6 nM
32. O=C(Cn1cc(Br)c2ncc(-c3ccc(F)cc3)cc21)N1CCCC1 [Example 19, 2-[3-Bromo-6-(4-fluorophenyl)pyrrolo[3,2-b]pyridin-1-yl]-1-pyrrolidin-1-yl-ethanone]  31.6 nM
33. CC(C)C(O)Cn1ccc2ncc(-c3cc(F)cc(F)c3)cc21 (racemic) [Example 272]  25.1 nM
34. O=C(Cn1cc(Br)c2ncc(-c3ccccc3)cc21)N1CCC1 [Example 11, 1-(Azetidin-1-yl)-2-(3-bromo-6-phenyl-pyrrolo[3,2-b]pyridin-1-yl)ethanone]  25.1 nM
35. O=C(Cn1cc(Br)c2ncc(-c3ccc(F)cc3)cc21)N1CCC1 [Example 18, 1-(Azetidin-1-yl)-2-[3-bromo-6-(4-fluorophenyl)pyrrolo[3,2-b]pyridin-1-yl]ethanone]  20 nM

With `O=C(Cn1cc(Cl)c2ncc(-c3ccc(F)cc3)cc21)N1CCC1` [Example 3, 1-(Azetidin-1-yl)-2-[3-chloro-6-(4-fluorophenyl)pyrrolo[3,2-b]pyridin-1-yl]ethanone] the pIC50 was 7.6.
